According to US12083089B2, “Compositions and methods for stimulating ventilatory and/or respiratory drive” (CASE WESTERN RESERVE UNIVERSITY, priority 2015, dated 2024):

What was measured:
freely moving rats [1] = test: Tail-flick latency (TFL) test; format: in vivo, rat; conditions: for Tail-Flick latency: vehicle-pretreated rats, morphine 10 mg/kg IV
adult male rats = test: Von Frey Test, morphine 1 mg/kg; format: in vivo, rat; conditions: given alone, morphine 1 mg/kg IV
freely moving rats [2] = test: Arterial blood-gas chemistry and A-a gradient in morphine-treated rats; format: in vivo, rat; conditions: freely moving rats, morphine 10 mg/kg IV, then drug 500 μmol/kg IV 15 min later
rats = test: Sedation observation in morphine-treated rats; conditions: morphine 10 mg/kg IV plus vehicle
freely moving rats [3] = test: Hot-plate (hind-paw withdrawal) latency (HPL), Hargreaves's test, morphine 10 mg/kg; format: in vivo, rat; conditions: morphine 10 mg/kg IV in vehicle-treated rats

Question: With CN1CC[C@]23c4c5ccc(O)c4O[C@H]2[C@@H](O)C=C[C@H]3[C@H]1C5 [Morphine, morphine] as the compound, how does the “duration of the increase in TFL” value (freely moving rats [1]; morphine 10 mg/kg IV in vehicle-treated rats) read?
Answer: at least 4 h

Question: What about the “Tail-Flick latency” value (freely moving rats [1]; post-morphine - 30 min) of the same compound?
Answer: 12 ± 0.0 s

Question: What about the “Tail-Flick latency” value (freely moving rats [1]; post-morphine - 60 min) of the same compound?
Answer: 12 ± 0.0 s

Question: And the “Tail-Flick latency” value (freely moving rats [1]; post-morphine - 90 min)?
Answer: 11.7 ± 0.2 s

Question: And the “Tail-Flick latency” value (freely moving rats [1]; post-morphine - 120 min)?
Answer: 11.1 ± 0.2 s

Question: What about the “Tail-Flick latency” value (freely moving rats [1]; post-morphine - 180 min) of the same compound?
Answer: 8.3 ± 0.3 s

Question: And the “Tail-Flick latency” value (freely moving rats [1]; post-morphine - 210 min)?
Answer: 5.6 ± 0.3 s

Question: And the “Tail-Flick latency” value (freely moving rats [1]; post-morphine - 240 min)?
Answer: 4.3 ± 0.3 s

Question: And the “Tail-Flick latency” value (freely moving rats [1]; post-morphine - 360 min)?
Answer: 3.3 ± 0.3 s

Question: What about the “force needed to initiate hind-paw withdrawal (Von Frey)” value (adult male rats; D-cystine diME 500 μmol/kg IV, FIG. 27 study) of the same compound?
Answer: 177±8 grams

Question: What about the “force needed to initiate hind-paw withdrawal (Von Frey)” value (adult male rats; L-cystine diME 500 μmol/kg IV, FIG. 25 study) of the same compound?
Answer: 88.3 ± 7.0 g

Question: And the “changes in ABG chemistry (pH, pCO2, pO2 and sO2)” value (freely moving rats [2]; FIG. 18)?
Answer: substantial falls in pH, pO2 and sO2 accompanied by substantial increases in pCO2

Question: What about the “changes in A-a gradient” value (freely moving rats [2]; FIG. 19) of the same compound?
Answer: substantial and equivalent increases

Question: And the “time for which full mobility was not evident” value (rats)?
Answer: at least 2 h

Question: What about the “duration of the increase in HPL” value (freely moving rats [3]) of the same compound?
Answer: at least 4 h
